Data taken from US12528793B2 (priority 2019, dated 2026).
Values after ≈ are worked out from the molar mass of the structure shown.

Columns and labels:
[1] = test system: M. smegmatis mc2 155; assay: Antimycobacterial activity (growth inhibition, MIC50) against M. smegmatis; type: cell-based; details: Mycolicibacterium smegmatis, MC2155, read-out: M. smeg., MIC50
[2] = test system: M. tuberculosis H37Rv; assay: Antimycobacterial activity (growth inhibition, MIC50) against Mtb; type: cell-based; details: for MIC50: Mycobacterium tuberculosis, H37RV, read-out: Mtb, MIC50, [μM)
[3] = test system: M. bovis BCG cells; assay: microbe, parasite or virus in culture; type: cell-based; details: Mycobacterium tuberculosis variant bovis BCG, read-out: IC50 for intracellular ATP synthesis inhibition
[4] = test system: M. smegmatis mc^2 155; assay: Kill kinetics against M. smegmatis mc^2 155; type: cell-based; details: M. smegmatis mc^2 155, liquid culture, up to 4 days; (II) at 20-fold MIC50 (FIG. 1 legend 10×MIC50), BDQ 200×MIC50
[5] = Metabolic stability in mouse liver microsomes
[6] = test system: M. bovis bacillus Calmette-Guérin (BCG); assay: microbe, parasite or virus in culture; type: cell-based; details: Mycobacterium tuberculosis variant bovis BCG, read-out: MIC50 in M. bovis BCG
[7] = test system: human embryonic stem cell (hESC) line (E3); assay: hESC line (E3) genotoxicity and transcriptional program assays; type: cell-based; details: racemate of (VI) 100 nM in combination with 300 nM of (II)
Text: Further, a human embryonic stem cell (hESC) line (E3) was used to examine both potential drug-induced genotoxicity and perturbations of the hESC transcriptional program that lead to hESC differentiation.

| SMILES | MIC50 [1] | MIC50 [2] | IC50 [3] | bactericidal activity (kill kinetics) [4] | also measured |
| --- | --- | --- | --- | --- | --- |
| CCNc1cc(C)nc(Nc2ccc3[nH]c(-c4ccccc4)nc3c2)n1 | 23.5 µM (≈ 8.09 µg/mL) | 8.8 µM (≈ 3.03 µg/mL) |  |  |  |
| CCNc1cc(C)nc(Nc2ccc3nc(-c4cccc(Cl)c4)[nH]c3c2)n1 [Formula (III), N^2-(2-(3-Chlorophenyl)-1H-benzo[d]imidazol-5-yl)-N^4-ethyl-6-methylpyrimidine-2,4-diamine] | 14.6 µM | 5.2 µM |  |  |  |
| COc1nc2ccc(Br)cc2cc1[C@@H](c1ccccc1)[C@@](O)(CCN(C)C)c1cccc2ccccc12 [BDQ, Bedaquiline, reference compound] |  |  | 11.5 nM | delayed bactericidal activity |  |
| CCNc1cc(C)nc(Nc2ccc3nc(-c4ccc(Cl)cc4)[nH]c3c2)n1 [Formula (II), N^2-(2-(4-Chlorophenyl)-1H-benzo[d]imidazol-5-yl)-N^4-ethyl-6-methylpyrimidine-2,4-diamine] | 9.9 µM | 3 µM | 3300 nM | bactericidal | CIint [5]: 46.8; CLhep [5]: 60.5 mL/min/kg; T1/2 [5]: 29.6 min; MIC50 [6]: 6.8 µM; fold improvement of MIC50 ([2]; Mtb H37Rv, compared with cpd6 of WO 2018/151681 A2): 10 fold |
| CCSCCCOc1cccc(C(c2cc3cc(Br)ccc3nc2OC)C(O)(CCN(C)C)c2cc(OC)nc(OC)c2)c1OC (racemic) [Formula (VI)] |  |  | 3.4 nM |  | alterations in the global transcriptional program [7]: nor induced major alterations; genotoxic effects [7]: did not show substantial genotoxic effects |
